Species on record: Rattus norvegicus
Assay: DrugMatrix - Regimen: Daily Repeat
Format: toxicity, organism-based, Sprague-Dawley
Parameters: regimen Daily Repeat, gender Male, age 6-8 weeks
Settings: in vivo, po, […], route oral GAVAGE, dose 1.2 mg/Kg, dose level Low; for ABSOLUTE BASOPHIL / ABSOLUTE EOSINOPHIL / ABSOLUTE LYMPHOCYTE / ABSOLUTE MONOCYTE / ABSOLUTE SEGMENTED NEUTROPHIL / BASOPHIL / EOSINOPHIL / ERYTHROCYTE COUNT / HEMATOCRIT / HEMOGLOBIN / LEUKOCYTE COUNT / LYMPHOCYTE / MEAN CORPUSCULAR HEMOGLOBIN / MEAN CORPUSCULAR HEMOGLOBIN CONCENTRATION / MEAN CORPUSCULAR VOLUME / MONOCYTE / NEUTROPHIL / NUCLEATED RED BLOOD CELLS / PLATELET COUNT: tissue Blood; for ALANINE AMINOTRANSFERASE / ALBUMIN / ALKALINE PHOSPHATASE / ASPARTATE AMINOTRANSFERASE / BLOOD UREA NITROGEN / CARBON DIOXIDE / CHLORIDE / CHOLESTEROL / CREATINE PHOSPHOKINASE / CREATININE / GLUCOSE / LACTATE DEHYDROGENASE / LIPASE / PHOSPHORUS / POTASSIUM / SODIUM / TOTAL BILIRUBIN / TOTAL PROTEIN / URIC ACID: tissue Plasma

CNC(=C[N+](=O)[O-])NCCSCc1csc(CN(C)C)n1 [NIZATIDINE]
ABSOLUTE BASOPHIL (72 h, time 3 day): 0 CELLS/uL
ABSOLUTE EOSINOPHIL (72 h, time 3 day): 34 CELLS/uL
ABSOLUTE LYMPHOCYTE (72 h, time 3 day): 10569 CELLS/uL
ABSOLUTE MONOCYTE (72 h, time 3 day): 72 CELLS/uL
ABSOLUTE SEGMENTED NEUTROPHIL (72 h, time 3 day): 2425 CELLS/uL
BASOPHIL (72 h, time 3 day): 0%
EOSINOPHIL (72 h, time 3 day): 0.33%
ERYTHROCYTE COUNT (72 h, time 3 day): 5.9 x10E6/uL
HEMATOCRIT (72 h, time 3 day): 35.07%
HEMOGLOBIN (72 h, time 3 day): 13.63 G/DL
LEUKOCYTE COUNT (72 h, time 3 day): 13.1 x10E3/uL
LYMPHOCYTE (72 h, time 3 day): 80.33%
MEAN CORPUSCULAR HEMOGLOBIN (72 h, time 3 day): 23.13 pg
MEAN CORPUSCULAR HEMOGLOBIN CONCENTRATION (72 h, time 3 day): 38.87 G/DL
MEAN CORPUSCULAR VOLUME (72 h, time 3 day): 59.5 fL
MONOCYTE (72 h, time 3 day): 0.67%
NEUTROPHIL (72 h, time 3 day): 18.67%
NUCLEATED RED BLOOD CELLS (72 h, time 3 day): 0.67 /100WBC
PLATELET COUNT (72 h, time 3 day): 1288.67 x10E3/uL
ALANINE AMINOTRANSFERASE (72 h, time 3 day): 58.33 u/L
ALBUMIN (72 h, time 3 day): 4.07 G/DL
ALKALINE PHOSPHATASE (72 h, time 3 day): 348.67 u/L
ASPARTATE AMINOTRANSFERASE (72 h, time 3 day): 87.67 u/L
BLOOD UREA NITROGEN (72 h, time 3 day): 12.67 mg/dL
CARBON DIOXIDE (72 h, time 3 day): 26 mmol/L
CHLORIDE (72 h, time 3 day): 101 MEQ/L
CHOLESTEROL (72 h, time 3 day): 72.67 mg/dL
CREATINE PHOSPHOKINASE (72 h, time 3 day): 343.33 u/L
CREATININE (72 h, time 3 day): 0.16 mg/dL
GLUCOSE (72 h, time 3 day): 162.67 mg/dL
LACTATE DEHYDROGENASE (72 h, time 3 day): 208 u/L
LIPASE (72 h, time 3 day): 10 u/L
PHOSPHORUS (72 h, time 3 day): 13.27 mg/dL
POTASSIUM (72 h, time 3 day): 7.68 MEQ/L
SODIUM (72 h, time 3 day): 143.37 MEQ/L
TOTAL BILIRUBIN (72 h, time 3 day): 0.2 mg/dL
TOTAL PROTEIN (72 h, time 3 day): 5.6 G/DL
URIC ACID (72 h, time 3 day): 2 mg/dL
ABSOLUTE BASOPHIL (120 h, time 5 day): 0 CELLS/uL
ABSOLUTE EOSINOPHIL (120 h, time 5 day): 0 CELLS/uL
ABSOLUTE LYMPHOCYTE (120 h, time 5 day): 14620.33 CELLS/uL
ABSOLUTE MONOCYTE (120 h, time 5 day): 0 CELLS/uL
ABSOLUTE SEGMENTED NEUTROPHIL (120 h, time 5 day): 2246.33 CELLS/uL
BASOPHIL (120 h, time 5 day): 0%
EOSINOPHIL (120 h, time 5 day): 0%
ERYTHROCYTE COUNT (120 h, time 5 day): 5.78 x10E6/uL
HEMATOCRIT (120 h, time 5 day): 35.77%
HEMOGLOBIN (120 h, time 5 day): 14.27 G/DL
LEUKOCYTE COUNT (120 h, time 5 day): 16.87 x10E3/uL
LYMPHOCYTE (120 h, time 5 day): 87%
MEAN CORPUSCULAR HEMOGLOBIN (120 h, time 5 day): 24.63 pg
MEAN CORPUSCULAR HEMOGLOBIN CONCENTRATION (120 h, time 5 day): 39.9 G/DL
MEAN CORPUSCULAR VOLUME (120 h, time 5 day): 61.87 fL
MONOCYTE (120 h, time 5 day): 0%
NEUTROPHIL (120 h, time 5 day): 13%
NUCLEATED RED BLOOD CELLS (120 h, time 5 day): 0 /100WBC
PLATELET COUNT (120 h, time 5 day): 1147.67 x10E3/uL
ALANINE AMINOTRANSFERASE (120 h, time 5 day): 54.33 u/L
ALBUMIN (120 h, time 5 day): 4.27 G/DL
ALKALINE PHOSPHATASE (120 h, time 5 day): 454.67 u/L
ASPARTATE AMINOTRANSFERASE (120 h, time 5 day): 86.67 u/L
BLOOD UREA NITROGEN (120 h, time 5 day): 11.67 mg/dL
CARBON DIOXIDE (120 h, time 5 day): 27 mmol/L
CHLORIDE (120 h, time 5 day): 101.33 MEQ/L
CHOLESTEROL (120 h, time 5 day): 63.33 mg/dL
CREATINE PHOSPHOKINASE (120 h, time 5 day): 239.33 u/L
CREATININE (120 h, time 5 day): 0.2 mg/dL
GLUCOSE (120 h, time 5 day): 154 mg/dL
LACTATE DEHYDROGENASE (120 h, time 5 day): 176.67 u/L
LIPASE (120 h, time 5 day): 10 u/L
PHOSPHORUS (120 h, time 5 day): 11.33 mg/dL
POTASSIUM (120 h, time 5 day): 6.56 MEQ/L
SODIUM (120 h, time 5 day): 143.2 MEQ/L
TOTAL BILIRUBIN (120 h, time 5 day): 0.17 mg/dL
TOTAL PROTEIN (120 h, time 5 day): 5.87 G/DL
URIC ACID (120 h, time 5 day): 1.7 mg/dL

— ChEMBL document CHEMBL3885881, “DrugMatrix”
